This note sets out measurements from paper PMC5578959, “Selective LRRK2 kinase inhibition reduces phosphorylation of endogenous Rab10 and Rab12 in human peripheral mononuclear blood cells” (Scientific Reports, 2017).

One experiment deals with T1, LRRK2 A2016T (Homo sapiens, UniProt Q5S007, A2016T).
T1 construct: expressed in transfected cells; host or cells: HEK293
In words: Odyssey CLx 96-well ICW assay, LRRK2-Ser935 phosphorylation in transfected HEK293 cells. Conditions: transiently transfected HEK293 cells, inhibition resistant mutant A2016T, 1 h, mean, n = 3. It counts as cell-based. From the text: (§1) Plasmids encoding various LRRK2 and Rab GTPase protein variants were transiently expressed in HEK293 cells using Lipofectamine®2000 according to the manufacturer’s instructions (Thermo Fisher Scientific, US).
(§2) HEK293 cells grown in clear-bottom 96-well plates were transfected with either wild type LRRK2, kinase overactive variant G2019S, inhibition-resistant mutant A2016T or mock, respectively. […] Subsequently, the plates were processed as previously described.

Another experiment concerns the target T2, LRRK2 G2019S (Homo sapiens, UniProt Q5S007, G2019S).
T2 construct: expressed in transfected cells; host or cells: HEK293
Described as above. It counts as cell-based. Conditions: transiently transfected HEK293 cells, overactive variant G2019S, 1 h, mean, n = 3.
Excerpt: as §1, §2

Another experiment has as its target LRRK2 WT (Homo sapiens, UniProt Q5S007). The description is as above. Format: cell-based. To be noted: transiently transfected HEK293 cells, 1 h, mean, n = 3.
Excerpt: as §1, §2

Another experiment has as its system T3, total LRRK2.
T3 construct: human primary cells expressing endogenous levels of LRRK2; endogenous in cells; host or cells: human PBMCs from healthy donors
Description: Western Blot, cultured immune stimulated human PBMCs. To be noted: 100 nM; 24hr; PMA/INF-γ stimulated PBMCs, 3 DIV. Format: cell-based. A general note: In western blotting, separated proteins are transferred to a membrane and probed.

The test system of another experiment is Rab10-pThr73. In words: Western Blot, HEK293 cells co-expressing HA-Rab10 and LRRK2 variants. It counts as cell-based, human. Conditions: 100 nM; HEK293 co-overexpressing HA-Rab10 and LRRK2 WT, G2019S or R1441C. On the procedure: as §1
HEK293 cells were plated at a density of 1 × 10^6 cells/well in 6-well plates pre-coated for 1 hr at 37 °C with poly-L-lysin. Subsequent to the transient transfection HEK293 cells were harvested using 1 mL cold Phosphate Buffered Saline (PBS) buffer (Invitrogen, California, US) and subsequently centrifuged at 800 g for 2 minutes. Cell pellets were resuspended and solubilized in 100 µL lysis buffer (50 mM Tris hydrochloride, 1 mM magnesium chloride, 1% Triton, 0.1% sodium dodecyl sulfate (SDS), pH 8.0) on ice for 20 minutes and then centrifuged at 20,000 g for 30 minutes at 4 °C. The solubilized crude cell lysate was size mobility separated by SDS-polyacrylamide gel electrophoresis (SDS-PAGE). LRRK2 was separated on a 3–8% Tris-Acetate gel (NuPAGE® Tris-Acetate Mini Gels, Life Technologies, Paisley, UK) and Rab10 and Rab12 were separated using a NuPAGE® Novex 4–12% Bis-Tris Gel (Invitrogen, California, US). An amount of 10 µg total protein was loaded in each well. Proteins were transferred to immobilon-FL PVDF membranes (Millipore, Billerica, US).

The next experiment deals with T4, CASK.
T4 construct: purchased ActivX Technologies (KiNativ)
In words: KiNativ profiling in human PBMCs. It counts as binding. Conditions: Lys1.

In the next experiment the test system is T5, CK1a.
T5 construct: purchased ActivX Technologies (KiNativ)
In words: KiNativ profiling in human PBMCs. Format: binding. Conditions: Lys2.

For the next experiment, the system named is T6, FAK.
T6 construct: purchased ActivX Technologies (KiNativ)
Description: KiNativ profiling in human PBMCs. Format: binding. Conditions: Activation Loop.

In another experiment the test system is T7, MST4.
T7 construct: purchased ActivX Technologies (KiNativ)
Description: KiNativ profiling in human PBMCs. It counts as binding. Conditions: Lys1.

For a further experiment, the system named is T8, NEK3.
T8 construct: purchased ActivX Technologies (KiNativ)
In words: KiNativ profiling in human PBMCs. It counts as binding. To be noted: Activation Loop.

The subject of a further experiment is T9, SRC.
T9 construct: purchased ActivX Technologies (KiNativ)
Description: KiNativ profiling in human PBMCs. To be noted: Lys1. Format: binding.

As a reminder, the IC50 is the concentration that gives 50% inhibition. Broadly, the % Inhibition is the relative decrease from the control value, in per cent.

T2 sequence (Q5S007 whole entry G2019S): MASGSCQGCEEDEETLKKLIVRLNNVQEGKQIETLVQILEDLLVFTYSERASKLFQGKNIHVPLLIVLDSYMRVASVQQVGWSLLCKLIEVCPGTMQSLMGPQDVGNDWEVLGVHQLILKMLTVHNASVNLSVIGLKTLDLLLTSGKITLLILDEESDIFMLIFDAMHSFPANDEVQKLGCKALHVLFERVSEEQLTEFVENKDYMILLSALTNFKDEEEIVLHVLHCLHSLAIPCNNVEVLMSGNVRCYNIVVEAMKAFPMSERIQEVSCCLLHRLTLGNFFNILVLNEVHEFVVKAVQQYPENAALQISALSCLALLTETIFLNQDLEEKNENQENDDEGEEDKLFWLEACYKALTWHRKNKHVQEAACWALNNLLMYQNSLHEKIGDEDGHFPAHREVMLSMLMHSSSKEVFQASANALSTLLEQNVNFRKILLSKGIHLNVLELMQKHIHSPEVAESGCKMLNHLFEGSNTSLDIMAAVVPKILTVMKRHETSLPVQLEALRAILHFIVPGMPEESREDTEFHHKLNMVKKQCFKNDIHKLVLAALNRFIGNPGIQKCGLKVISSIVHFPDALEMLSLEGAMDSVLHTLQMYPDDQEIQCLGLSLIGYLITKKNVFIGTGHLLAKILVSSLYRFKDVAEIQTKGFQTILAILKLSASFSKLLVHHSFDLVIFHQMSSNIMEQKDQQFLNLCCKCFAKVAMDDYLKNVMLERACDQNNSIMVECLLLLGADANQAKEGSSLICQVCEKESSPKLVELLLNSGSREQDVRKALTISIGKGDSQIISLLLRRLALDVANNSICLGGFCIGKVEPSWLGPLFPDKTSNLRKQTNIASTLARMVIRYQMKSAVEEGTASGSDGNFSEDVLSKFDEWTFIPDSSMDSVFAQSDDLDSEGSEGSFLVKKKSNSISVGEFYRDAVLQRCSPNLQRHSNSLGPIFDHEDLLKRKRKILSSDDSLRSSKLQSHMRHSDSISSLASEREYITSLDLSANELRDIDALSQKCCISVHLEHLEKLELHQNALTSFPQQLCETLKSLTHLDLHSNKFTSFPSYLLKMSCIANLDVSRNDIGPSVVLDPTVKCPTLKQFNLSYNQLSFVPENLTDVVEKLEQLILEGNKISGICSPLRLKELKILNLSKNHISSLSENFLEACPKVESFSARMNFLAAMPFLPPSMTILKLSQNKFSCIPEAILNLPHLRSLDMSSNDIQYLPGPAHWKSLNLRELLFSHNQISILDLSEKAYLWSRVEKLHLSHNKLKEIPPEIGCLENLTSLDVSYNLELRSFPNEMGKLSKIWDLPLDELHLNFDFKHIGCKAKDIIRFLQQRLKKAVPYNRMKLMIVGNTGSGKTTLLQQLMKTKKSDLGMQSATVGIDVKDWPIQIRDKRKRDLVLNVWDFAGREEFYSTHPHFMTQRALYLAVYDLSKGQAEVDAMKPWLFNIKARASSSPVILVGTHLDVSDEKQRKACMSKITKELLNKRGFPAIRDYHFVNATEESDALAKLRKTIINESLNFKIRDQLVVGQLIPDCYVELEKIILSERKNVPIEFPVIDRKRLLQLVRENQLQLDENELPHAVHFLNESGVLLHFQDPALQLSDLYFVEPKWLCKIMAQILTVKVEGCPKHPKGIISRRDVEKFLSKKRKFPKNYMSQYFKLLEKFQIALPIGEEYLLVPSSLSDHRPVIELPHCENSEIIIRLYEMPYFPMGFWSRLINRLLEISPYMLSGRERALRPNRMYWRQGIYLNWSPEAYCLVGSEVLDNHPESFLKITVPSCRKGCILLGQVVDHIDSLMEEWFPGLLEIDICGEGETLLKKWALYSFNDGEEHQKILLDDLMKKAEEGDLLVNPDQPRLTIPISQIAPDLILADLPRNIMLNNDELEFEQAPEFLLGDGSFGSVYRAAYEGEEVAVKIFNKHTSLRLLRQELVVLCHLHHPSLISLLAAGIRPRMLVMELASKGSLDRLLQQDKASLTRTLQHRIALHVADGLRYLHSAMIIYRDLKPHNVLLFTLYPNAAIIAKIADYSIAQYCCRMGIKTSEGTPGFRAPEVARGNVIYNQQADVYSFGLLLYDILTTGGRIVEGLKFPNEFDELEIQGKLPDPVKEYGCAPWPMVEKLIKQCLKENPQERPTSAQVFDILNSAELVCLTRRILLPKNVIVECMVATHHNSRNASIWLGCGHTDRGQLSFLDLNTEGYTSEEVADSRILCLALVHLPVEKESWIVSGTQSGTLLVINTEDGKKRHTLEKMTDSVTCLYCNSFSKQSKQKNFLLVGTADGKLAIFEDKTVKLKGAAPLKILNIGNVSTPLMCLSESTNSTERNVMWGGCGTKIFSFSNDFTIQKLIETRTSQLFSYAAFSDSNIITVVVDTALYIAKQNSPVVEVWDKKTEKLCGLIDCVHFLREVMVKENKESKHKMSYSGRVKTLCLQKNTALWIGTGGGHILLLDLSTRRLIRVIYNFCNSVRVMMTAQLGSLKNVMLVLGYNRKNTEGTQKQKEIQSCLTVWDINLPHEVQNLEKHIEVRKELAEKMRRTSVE
LRRK2 WT, sequence (Q5S007 whole entry): as the sequence (Q5S007 whole entry G2019S) above, with S2019G counted along it
T1 sequence (Q5S007 whole entry A2016T): as the sequence (Q5S007 whole entry G2019S) above, with A2016T, S2019G counted along it

Turning to `Cc1cccc(-c2cc(Nc3ccn(C)n3)nc3[nH]cc(C#N)c23)c1` [Lu AF58786], the IC50 at LRRK2 A2016T was determined as 93 nM; on LRRK2 G2019S, 19 nM; against LRRK2 WT, 12 nM. In addition, the “total LRRK2 protein levels” value in the experiment with total LRRK2 is listed as “significantly lowers”. The “phosphorylation of Rab10 (pThr73)” value in the experiment on Rab10-pThr73 is recorded as “no phosphorylation”.
As for `Cn1cc(-c2c[nH]c3ncnc(N4CCOCC4)c23)cc1C#N` [PFE-360], the “% Inhibition” value in the experiment with CASK (0.1µM) is reported as 4.6%; in the experiment on CASK (1µM), 8.6%; in the experiment with CK1a (0.1µM), -17.4%; in the experiment on CK1a (1µM) it was 4.6%; in the experiment on FAK (0.1µM) it was 2.6%; with FAK (1µM), 26.4%. The “% Inhibition” value with MST4 (0.1µM) was -26.3%; with MST4 (1µM), -30%; with NEK3 (0.1µM), -10.8%; with NEK3 (1µM) it was 1.2%; in the experiment on SRC (0.1µM), -31.8%; with SRC (1µM) it was -0.3%.
